According to PubChem BioAssay AID2060359 (Molecular Pharmacology Branch, DTP, NCI, 2025):

Test system: 276233-004-R-J1-PDC spheroids with HUVEC/MSC, viability
Test: Anticancer human tumor 276233-004-R-J1-PDC patient-derived colon adenocarcinoma cell line growth inhibition [TAK]
Conditions: for IC50: curve of first compound; for viability, T/C: stronger effect = lower value
From the text: Combinatorial screen of targeted agents with TAK-243 and ipatasertib in multi-cell type tumor spheroids
A high-throughput screen of multi-cell type tumor spheroids was designed to identify active combinations of targeted small molecules and TAK-243 or ipatasertib. Complex spheroids include a stromal component modeled by human endothelial cells (HUVEC) and fibroblasts modeled by human mesenchymal stem cells (MSCs). The concentration ranges selected for each drug and investigational agent were based upon clinically achievable concentrations if the clinical Cmax of the agent was known.
Compounds. The drugs and investigational agents: TAK-243 (785004), ipatasertib (767898), everolimus (733504), selumetinib (741078), bortezomib (756655), trametinib (758246), ixazomib (758254), vemurafenib (761431), dabrafenib (764134), sapanisertib (764658), alpelisib (765974), and copanlisib (816437), were obtained from the National Cancer Institute (NCI) Developmental Therapeutics Program Chemical Repository. The FDA-approved anticancer drug set is available from the NCI Developmental Therapeutics Program. […] The stock solutions were prepared in dimethyl sulfoxide (DMSO, Sigma-Aldrich, St. Louis, MO, cat. D2650) at 800-fold the tested concentration and stored at -70 degrees C prior to their use. All drugs and investigational agents were tested over a range starting from a high concentration at or near the clinical Cmax and decreasing in half-log increments. If the clinical Cmax for an agent had not been determined, the highest concentration tested was 10 microM.
NCI60 Cell Culture. NCI60 cell lines were obtained from the NCI Developmental Therapeutics Program Tumor Repository. For each lot of cells, the Repository performed Applied Biosystems AmpFLSTR Identifiler testing with PCR amplification to confirm consistency with the published Identifier STR profile for each cell line. Cells were kept in continuous culture for no more than 20 passages. The optimal seeding densities for each of the cell lines at each time point assessed were determined prior to performing the concentration response studies. Briefly, the NCI60 human tumor lines were grown as monolayers in RPMI 1640 medium supplemented with 10% FBS and 2 mmol/L L-glutamine.
An additional 2 lines were from the NCI60 cell line panel including melanomas, MALME-3M and SK-MEL-2. Pooled donor human umbilical vein endothelial cells (HUVEC, Lonza, cat. CC-2519) and human mesenchymal stem cells (hMSC, Lonza, cat. PT-2501) were purchased from Lonza (Walkersville, MD).
PDMR cell lines were grown in complete medium (DC medium): Dulbecco's modified Eagle's medium (DMEM)/F12 supplemented with 5% fetal bovine serum (FBS), 2 mM L-glutamine, 100 U/mL penicillin and 100 µg/ml streptomycin, 0.4 µg/ml hydrocortisone, 10 ng/ml epidermal growth factor (EGF) recombinant human protein, 24 µg/mL adenine, and 0.1 mg/mL primocin. During culture from frozen stock vials, PDMR cells were cultured in the same medium containing 10 µM Y-27632 (see Table 3). The PDCs were cultured in complete DMEM/F12 media without 10 microM Y-27632 dihydrochloride for at least two passages prior to the screen. The pooled donor HUVEC and hMSC were cultured in endothelial cell growth medium 2 (PromoCell, Heidelberg, Germany, cat. C-22011) and mesenchymal stem cell growth medium 2 (PromoCell, cat. C-28009), respectively. For all experiments, HUVEC and hMSC were used at passages </=5.
For the pre-screen, cell seeding densities were determined from a titration spanning the range from 5,000 to 313 cells per well. The mct-spheroids including 60% malignant cells, 25% HUVEC and 15% MSC dispensed as a mixture into U-bottom Ultra-Low Attachment 384-well plates (Corning, NY)
High-throughput Drug Combination Screening.
Prior to their inoculation into 384-well plates, malignant cells, HUVEC, and hMSC were removed from T flasks using TrypLE express (Thermo Fisher Scientific, cat. 12605036) and harvested by centrifugation for 5 min at 233 x g. […]
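Further: spheroids exposed to drugs for seven days before the viability read.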

Compound: CC(=O)Nc1cccc(-n2c(=O)n(C3CC3)c(=O)c3c(Nc4ccc(I)cc4F)n(C)c(=O)c(C)c32)c1 + CC(C)NCC(C(=O)N1CCN(c2ncnc3c2C(C)CC3O)CC1)c1ccc(Cl)cc1
- IC50 (second compound 0.3 µM): 0.00822 µM
- IC50 (second compound 0.949 µM): 0.00523 µM
- IC50 (second compound 3 µM): 0.00325 µM
- IC50 (second compound 9.49 µM): 0.00182 µM
- IC50 (second compound 30 µM): 0.000326 µM
- viability, T/C (second compound 0.3 µM, first compound 94.9 pM): 101%
- viability, T/C (second compound 0.3 µM, first compound 0.0003 µM): 86.7%
- viability, T/C (second compound 0.3 µM, first compound 0.000949 µM): 67.2%
- viability, T/C (second compound 0.3 µM, first compound 0.003 µM): 73.8%
- viability, T/C (second compound 0.3 µM, first compound 0.00949 µM): 48.8%
- viability, T/C (second compound 0.3 µM, first compound 0.03 µM): 28.6%
- viability, T/C (second compound 0.949 µM, first compound 94.9 pM): 80.8%
- viability, T/C (second compound 0.949 µM, first compound 0.0003 µM): 84.8%
- viability, T/C (second compound 0.949 µM, first compound 0.000949 µM): 77.1%
- viability, T/C (second compound 0.949 µM, first compound 0.003 µM): 55.4%
- viability, T/C (second compound 0.949 µM, first compound 0.00949 µM): 43.2%
- viability, T/C (second compound 0.949 µM, first compound 0.03 µM): 26%
- viability, T/C (second compound 3 µM, first compound 94.9 pM): 77.9%
- viability, T/C (second compound 3 µM, first compound 0.0003 µM): 61.6%
- viability, T/C (second compound 3 µM, first compound 0.000949 µM): 64%
- viability, T/C (second compound 3 µM, first compound 0.003 µM): 48.9%
- viability, T/C (second compound 3 µM, first compound 0.00949 µM): 43.5%
- viability, T/C (second compound 3 µM, first compound 0.03 µM): 27.1%
- viability, T/C (second compound 9.49 µM, first compound 94.9 pM): 72.6%
- viability, T/C (second compound 9.49 µM, first compound 0.0003 µM): 69.3%
- viability, T/C (second compound 9.49 µM, first compound 0.000949 µM): 53.5%
- viability, T/C (second compound 9.49 µM, first compound 0.003 µM): 45.5%
- viability, T/C (second compound 9.49 µM, first compound 0.00949 µM): 33%
- viability, T/C (second compound 9.49 µM, first compound 0.03 µM): 18.4%
- viability, T/C (second compound 30 µM, first compound 94.9 pM): 45.8%
- viability, T/C (second compound 30 µM, first compound 0.0003 µM): 55.1%
- viability, T/C (second compound 30 µM, first compound 0.000949 µM): 45.3%
- viability, T/C (second compound 30 µM, first compound 0.003 µM): 27.8%
- viability, T/C (second compound 30 µM, first compound 0.00949 µM): 29.6%
- viability, T/C (second compound 30 µM, first compound 0.03 µM): 33.6%

Compound: CC(C)CC(NC(=O)CNC(=O)c1cc(Cl)ccc1Cl)B1OC(=O)CC(CC(=O)O)(C(=O)O)O1 (stereo not given) + CC(C)NCC(C(=O)N1CCN(c2ncnc3c2C(C)CC3O)CC1)c1ccc(Cl)cc1
- IC50 (second compound 0.3 µM): 0.0539 µM
- IC50 (second compound 0.949 µM): 0.0523 µM
- IC50 (second compound 3 µM): 0.0421 µM
- IC50 (second compound 9.49 µM): 0.0317 µM
- IC50 (second compound 30 µM): 0.0175 µM
- viability, T/C (second compound 0.3 µM, first compound 0.000316 µM): 112%
- viability, T/C (second compound 0.3 µM, first compound 0.001 µM): 103%
- viability, T/C (second compound 0.3 µM, first compound 0.00316 µM): 102%
- viability, T/C (second compound 0.3 µM, first compound 0.01 µM): 106%
- viability, T/C (second compound 0.3 µM, first compound 0.0316 µM): 81.2%
- viability, T/C (second compound 0.3 µM, first compound 0.1 µM): 14.1%
- viability, T/C (second compound 0.949 µM, first compound 0.000316 µM): 112%
- viability, T/C (second compound 0.949 µM, first compound 0.001 µM): 95.7%
- viability, T/C (second compound 0.949 µM, first compound 0.00316 µM): 101%
- viability, T/C (second compound 0.949 µM, first compound 0.01 µM): 91.3%
- viability, T/C (second compound 0.949 µM, first compound 0.0316 µM): 82.1%
- viability, T/C (second compound 0.949 µM, first compound 0.1 µM): 12%
- viability, T/C (second compound 3 µM, first compound 0.000316 µM): 90.4%
- viability, T/C (second compound 3 µM, first compound 0.001 µM): 89.6%
- viability, T/C (second compound 3 µM, first compound 0.00316 µM): 84.3%
- viability, T/C (second compound 3 µM, first compound 0.01 µM): 79.4%
- viability, T/C (second compound 3 µM, first compound 0.0316 µM): 64.4%
- viability, T/C (second compound 3 µM, first compound 0.1 µM): 10.9%
- viability, T/C (second compound 9.49 µM, first compound 0.000316 µM): 74.6%
- viability, T/C (second compound 9.49 µM, first compound 0.001 µM): 84.8%
- viability, T/C (second compound 9.49 µM, first compound 0.00316 µM): 65.1%
- viability, T/C (second compound 9.49 µM, first compound 0.01 µM): 71.7%
- viability, T/C (second compound 9.49 µM, first compound 0.0316 µM): 49.2%
- viability, T/C (second compound 9.49 µM, first compound 0.1 µM): 13.5%
- viability, T/C (second compound 30 µM, first compound 0.000316 µM): 68.2%
- viability, T/C (second compound 30 µM, first compound 0.001 µM): 84.8%
- viability, T/C (second compound 30 µM, first compound 0.00316 µM): 60.5%
- viability, T/C (second compound 30 µM, first compound 0.01 µM): 63.7%
- viability, T/C (second compound 30 µM, first compound 0.0316 µM): 38.3%
- viability, T/C (second compound 30 µM, first compound 0.1 µM): 17.2%
